Source: ChEMBL document CHEMBL1201862, “PubChem BioAssay data set” (2004)
Active and inactive are the calls of the source.

Tests used:
[1] = target: T1, Neuropeptide Y receptor type 1 (Homo sapiens, UniProt P25929); type: functional;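 also: HEK293 cells with a CNG channel challenged with NPY then isoproterenol; potency as antagonist that reverses NPY suppression of cAMP signal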
T1 sequence (P25929 whole entry): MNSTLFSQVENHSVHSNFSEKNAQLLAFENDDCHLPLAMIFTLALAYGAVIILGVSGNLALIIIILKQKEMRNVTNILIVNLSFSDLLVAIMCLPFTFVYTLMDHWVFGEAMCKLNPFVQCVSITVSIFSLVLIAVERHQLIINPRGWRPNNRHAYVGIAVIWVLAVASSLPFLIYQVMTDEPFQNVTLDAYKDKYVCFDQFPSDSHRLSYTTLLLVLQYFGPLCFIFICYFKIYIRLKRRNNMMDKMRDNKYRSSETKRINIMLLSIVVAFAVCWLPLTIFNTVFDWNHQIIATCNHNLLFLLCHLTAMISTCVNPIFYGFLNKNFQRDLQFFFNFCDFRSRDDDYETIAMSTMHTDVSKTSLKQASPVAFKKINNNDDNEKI

[2] = target: T2, Neuropeptide Y receptor type 2 (Homo sapiens, UniProt P49146); type: functional, cell-based;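 also: HEK293 cells expressing the receptor and a CNG channel; stimulus was NPY near EC95 followed by isoproterenol to raise cAMP; antagonist potency measured as restoring cAMP signal that NPY suppresses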
T2 sequence (P49146 whole entry): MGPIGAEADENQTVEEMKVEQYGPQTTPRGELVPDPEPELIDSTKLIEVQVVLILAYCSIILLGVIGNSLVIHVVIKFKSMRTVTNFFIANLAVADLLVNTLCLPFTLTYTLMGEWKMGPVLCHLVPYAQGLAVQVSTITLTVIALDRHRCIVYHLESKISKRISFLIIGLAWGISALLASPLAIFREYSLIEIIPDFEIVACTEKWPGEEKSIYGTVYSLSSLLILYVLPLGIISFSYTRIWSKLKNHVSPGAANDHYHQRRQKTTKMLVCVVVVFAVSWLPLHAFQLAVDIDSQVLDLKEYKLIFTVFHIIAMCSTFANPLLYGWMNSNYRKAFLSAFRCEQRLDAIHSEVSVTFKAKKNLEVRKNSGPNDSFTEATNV

[3] = cells; type: functional, cell-based
[4] = cells; type: functional, cell-based; remark: listed apart in the source
[5] = target: Paired box protein Pax-8 (Homo sapiens, UniProt Q06710); test: PAX8 transcriptional activity inhibition in RMG-I – RMG-I cells, luciferase, cherry-pick, dose response (AID 687027); type: functional, cell-based;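 also: luciferase reporter driven by Pax8 target thyroperoxidase promoter measured by SteadyGlo luminescence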
Sequence of Paired box protein Pax-8 (Q06710 whole entry): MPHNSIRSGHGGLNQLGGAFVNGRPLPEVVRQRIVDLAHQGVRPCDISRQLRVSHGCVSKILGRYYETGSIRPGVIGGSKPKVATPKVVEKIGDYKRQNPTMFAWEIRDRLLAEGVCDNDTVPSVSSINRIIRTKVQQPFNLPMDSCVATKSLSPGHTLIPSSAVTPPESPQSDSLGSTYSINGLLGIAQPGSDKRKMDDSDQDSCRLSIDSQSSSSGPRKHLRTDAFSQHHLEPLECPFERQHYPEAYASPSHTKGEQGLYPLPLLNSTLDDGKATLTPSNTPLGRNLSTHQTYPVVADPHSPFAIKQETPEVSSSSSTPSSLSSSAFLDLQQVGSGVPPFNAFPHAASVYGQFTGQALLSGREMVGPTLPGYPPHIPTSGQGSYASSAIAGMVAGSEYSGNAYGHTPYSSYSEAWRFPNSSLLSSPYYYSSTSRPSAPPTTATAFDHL

[6] = NIH3T3 cell viability loss – ATP luminescence, mouse fibroblasts, counter-screen, dose response (AID 2010); type: functional, cell-based;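 also: cells exposed to compound for about 90 hours before reading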
[7] = Luminescence-based counterscreen assay for KLF5 inhibitors: dose response cell-based high throughput screening assay to identify cytotoxic compounds using the IEC-6 intestinal epithelial cell line. [Related pubchem assays: 1700 (Primary screen.), 1834 (Confirmation screen.), 1858 (Summary AID.), 1905 (Counterscreen.)]; type: functional
[8] = test system: INS1; test: INS-1E survival protection against cytokine death – cell-based, luminescence, retest, dose response (AID 449756); type: functional; conditions: Rattus norvegicus;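 also: cell death triggered by IL-1 beta plus TNF-alpha plus IFN-gamma mixture; protective hits raise ATP signal compared with cytokine alone wells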
[9] = target: Nonstructural protein 1 (Influenza A virus, UniProt Q194T2); type: functional, Influenza A virus (A/California/07/2009(H1N1))
Sequence of Nonstructural protein 1 (Q194T2 whole entry): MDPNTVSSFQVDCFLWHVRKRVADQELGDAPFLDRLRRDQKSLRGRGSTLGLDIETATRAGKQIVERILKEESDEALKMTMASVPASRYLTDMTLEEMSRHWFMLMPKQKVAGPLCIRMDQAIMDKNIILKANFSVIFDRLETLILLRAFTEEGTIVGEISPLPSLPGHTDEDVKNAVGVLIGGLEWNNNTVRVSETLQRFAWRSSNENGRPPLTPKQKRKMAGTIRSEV

[10] = target: T3, Heat shock factor protein 1 (Mus musculus, UniProt P38532); test: decrease of HSF1-responsive luciferase luminescence – cell-based, NIH3T3, dose retest, confirmation (AID 2382); type: functional;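 also: NIH3T3 fibroblasts with HSF1-driven luciferase reporter stressed by proteasome inhibitor MG132; luminescence from HSF1-driven luciferase expression after 8 hours of MG132 stress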
T3 sequence (P38532 whole entry): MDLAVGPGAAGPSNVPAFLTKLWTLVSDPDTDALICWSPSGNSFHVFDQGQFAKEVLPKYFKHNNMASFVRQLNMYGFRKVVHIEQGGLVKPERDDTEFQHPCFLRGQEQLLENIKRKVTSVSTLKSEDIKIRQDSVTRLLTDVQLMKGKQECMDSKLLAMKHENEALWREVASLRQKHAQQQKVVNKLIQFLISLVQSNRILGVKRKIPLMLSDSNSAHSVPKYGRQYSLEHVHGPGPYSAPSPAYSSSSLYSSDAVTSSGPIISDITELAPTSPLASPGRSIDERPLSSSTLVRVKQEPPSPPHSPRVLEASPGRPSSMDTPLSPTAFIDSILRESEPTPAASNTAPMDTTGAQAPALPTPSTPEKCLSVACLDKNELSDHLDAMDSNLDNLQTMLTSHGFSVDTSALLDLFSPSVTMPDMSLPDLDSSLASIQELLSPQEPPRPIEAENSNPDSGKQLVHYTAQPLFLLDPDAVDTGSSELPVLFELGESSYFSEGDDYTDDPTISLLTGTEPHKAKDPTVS

[11] = fluconazole-exposed Candida albicans growth modulators – fluorescence, retest, confirmation (AID 2467); type: functional, cell-based
[12] = NIH-3T3 fibroblast cytotoxicity, dose response, cytotoxicity control, cell-based, fluorescence, Alamar Blue, secondary assay (AID 2327); type: functional;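 also: NIH-3T3 mouse fibroblasts cultured with fluconazole at 8 µg/mL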
[13] = Trypanosoma cruzi growth suppression in host cells – NIH3T3 host cells, beta-gal luminescence, confirmation (AID 2044); type: functional, cell-based;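 also: intracellular parasites grown in NIH/3T3 mouse fibroblasts as host cells; luminescent beta-galactosidase reporter signal from transgenic T. cruzi replicating inside host cells; inhibitors lower the luminescence signal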
[14] = test system: Streptococcus sp. 'group A'; test: Streptococcus pyogenes SK(-)GAS viability under kanamycin – luminescence, BacTiterGlo, confirmation, counter-screen for streptokinase expression inhibitor project, dose response (AID 1900); type: functional, organism-based
[15] = test system: Vero; test: mammalian cell viability reduction – secondary assay, cytotoxicity control for West Nile virus antiviral project, dose response (AID 1650); type: functional; conditions: Chlorocebus sabaeus
[16] = target: T4, Streptokinase A (Streptococcus pyogenes serotype M1, UniProt P10520); test: viability-normalized secreted streptokinase activity reduction – plasminogen activation absorbance, OD405, dose response (AID 1914); type: functional, Streptococcus pyogenes M1 GAS;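 also: secreted streptokinase activity via plasminogen activation per viability signal from cell pellet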
T4 sequence (P10520 whole entry): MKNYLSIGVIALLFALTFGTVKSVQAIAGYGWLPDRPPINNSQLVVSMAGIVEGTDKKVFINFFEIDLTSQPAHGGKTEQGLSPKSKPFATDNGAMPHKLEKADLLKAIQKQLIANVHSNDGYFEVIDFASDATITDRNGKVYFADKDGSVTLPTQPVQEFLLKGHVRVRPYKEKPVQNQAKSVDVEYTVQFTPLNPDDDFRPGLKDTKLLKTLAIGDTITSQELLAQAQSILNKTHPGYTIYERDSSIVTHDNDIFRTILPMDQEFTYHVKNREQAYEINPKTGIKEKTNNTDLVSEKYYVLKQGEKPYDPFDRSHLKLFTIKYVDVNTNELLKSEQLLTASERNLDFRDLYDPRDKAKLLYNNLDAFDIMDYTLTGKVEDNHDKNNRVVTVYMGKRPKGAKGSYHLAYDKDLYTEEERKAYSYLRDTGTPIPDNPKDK

[17] = test system: Streptococcus; test: GAS UMAA2166 growth inhibition – luminescence, BacTiterGlo, counter-screen for streptokinase expression inhibitor project, dose response (AID 1915); type: functional, organism-based;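 also: potency for reduction of bacterial viability or growth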
[18] = A cytotoxicity screen of small molecule inhibitors of the PhoP region in Salmonella typhi identified in the primary screen. [Related pubchem assays: 1850, 1864, 1985 ]; type: functional
[19] = target: Bcl-2-like protein 1 (Homo sapiens, UniProt Q07817); test: blockers of BCLXL peptide binding – biochemical, fluorescence polarization, 1536-well, selectivity assay for MCL1 inhibitor project, dose response (AID 2218)
Sequence of Bcl-2-like protein 1 (Q07817 whole entry): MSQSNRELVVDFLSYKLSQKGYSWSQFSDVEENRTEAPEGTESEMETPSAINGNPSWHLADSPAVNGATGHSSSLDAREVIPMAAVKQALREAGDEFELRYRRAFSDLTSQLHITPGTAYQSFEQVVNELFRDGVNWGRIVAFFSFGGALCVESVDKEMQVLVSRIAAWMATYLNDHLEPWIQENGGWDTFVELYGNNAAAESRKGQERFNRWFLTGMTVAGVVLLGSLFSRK

[20] = target: T5, SUMO-activating enzyme (Homo sapiens, UniProt Q9UBT2); test: blockers of SAE1/SAE2–UBC9 SUMO transfer – biochemical, HTRF, uHTS, primary screen (AID 2006); type: protein-complex assay
T5 sequence (Q9UBE0 whole entry): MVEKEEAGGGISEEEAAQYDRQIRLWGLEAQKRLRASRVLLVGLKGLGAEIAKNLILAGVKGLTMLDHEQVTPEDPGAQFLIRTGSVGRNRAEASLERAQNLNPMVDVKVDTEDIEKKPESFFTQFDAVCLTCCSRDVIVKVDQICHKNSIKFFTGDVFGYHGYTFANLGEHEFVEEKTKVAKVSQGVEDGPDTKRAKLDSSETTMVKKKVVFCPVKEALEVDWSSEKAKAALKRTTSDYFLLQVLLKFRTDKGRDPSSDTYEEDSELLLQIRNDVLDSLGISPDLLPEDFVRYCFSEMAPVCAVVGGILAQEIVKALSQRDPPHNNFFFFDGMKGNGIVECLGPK
T5 sequence (Q9UBT2 whole entry): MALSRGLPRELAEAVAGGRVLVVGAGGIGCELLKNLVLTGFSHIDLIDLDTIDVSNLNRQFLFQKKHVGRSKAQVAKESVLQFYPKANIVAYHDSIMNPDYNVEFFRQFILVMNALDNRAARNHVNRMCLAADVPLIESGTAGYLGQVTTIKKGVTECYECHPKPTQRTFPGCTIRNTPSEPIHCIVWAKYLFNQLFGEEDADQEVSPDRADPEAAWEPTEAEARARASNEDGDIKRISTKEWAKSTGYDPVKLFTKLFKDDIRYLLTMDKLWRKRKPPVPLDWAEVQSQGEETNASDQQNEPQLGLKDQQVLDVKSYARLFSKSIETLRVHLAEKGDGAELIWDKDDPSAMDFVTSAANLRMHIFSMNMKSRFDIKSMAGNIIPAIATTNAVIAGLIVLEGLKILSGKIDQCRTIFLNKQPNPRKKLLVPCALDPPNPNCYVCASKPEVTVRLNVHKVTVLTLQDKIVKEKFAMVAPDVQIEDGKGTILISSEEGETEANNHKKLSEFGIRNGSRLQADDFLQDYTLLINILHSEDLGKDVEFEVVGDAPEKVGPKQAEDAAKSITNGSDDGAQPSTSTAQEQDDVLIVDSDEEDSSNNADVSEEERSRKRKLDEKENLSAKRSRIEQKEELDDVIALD

[21] = target: T5, SUMO-activating enzyme; test: blockers of UBC9-mediated SUMO conjugation – biochemical, AlphaScreen, SUMOylation inhibitor project, confirmation (AID 2018); type: functional
[22] = target: Induced myeloid leukemia cell differentiation protein Mcl-1 (Homo sapiens, UniProt Q07820); test: blockers of MCL1 binding to BIM peptide – biochemical, fluorescence polarization, BIM-BH3 peptide, 1536-well, dose response (AID 2217)
Sequence of Induced myeloid leukemia cell differentiation protein Mcl-1 (Q07820 whole entry): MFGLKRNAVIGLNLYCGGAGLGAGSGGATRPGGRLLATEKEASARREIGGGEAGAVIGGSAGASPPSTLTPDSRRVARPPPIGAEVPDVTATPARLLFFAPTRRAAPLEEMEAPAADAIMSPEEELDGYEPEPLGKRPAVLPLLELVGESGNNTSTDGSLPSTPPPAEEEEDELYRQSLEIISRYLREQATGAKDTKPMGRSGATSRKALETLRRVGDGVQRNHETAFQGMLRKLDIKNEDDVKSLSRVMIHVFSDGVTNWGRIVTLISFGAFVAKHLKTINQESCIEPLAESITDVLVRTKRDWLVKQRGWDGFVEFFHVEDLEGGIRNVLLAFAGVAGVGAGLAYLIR

[23] = target: T6, Estrogen receptor beta (Homo sapiens, UniProt Q92731);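 also: recombinant ER-beta bound to coactivator SRC1 peptide in presence of estradiol agonist; inhibitors block coactivator peptide binding and lower the FRET signal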
T6 sequence (Q92731 whole entry): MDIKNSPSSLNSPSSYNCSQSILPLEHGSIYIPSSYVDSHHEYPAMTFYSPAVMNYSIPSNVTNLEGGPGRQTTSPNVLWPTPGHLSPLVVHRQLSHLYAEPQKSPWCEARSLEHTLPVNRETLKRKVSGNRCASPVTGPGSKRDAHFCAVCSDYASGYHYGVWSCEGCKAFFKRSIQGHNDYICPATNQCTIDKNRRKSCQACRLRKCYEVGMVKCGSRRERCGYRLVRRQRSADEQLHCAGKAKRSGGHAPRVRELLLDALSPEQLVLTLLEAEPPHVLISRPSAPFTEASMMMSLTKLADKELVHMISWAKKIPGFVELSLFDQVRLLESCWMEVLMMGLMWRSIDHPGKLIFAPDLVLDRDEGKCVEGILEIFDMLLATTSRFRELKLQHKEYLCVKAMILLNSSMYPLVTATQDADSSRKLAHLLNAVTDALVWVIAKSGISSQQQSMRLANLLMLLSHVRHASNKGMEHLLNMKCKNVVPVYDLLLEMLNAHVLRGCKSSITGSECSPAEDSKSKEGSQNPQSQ

[24] = target: T6, Estrogen receptor beta; test: blockers of SRC-3 recruitment to ERβ – biochemical, ELISA, streptavidin-HRP readout, orthogonal assay, confirmation (AID 1060)
[25] = cells
[26] = Luminescence Cell-Based Dose Response to Identify Activators of Luciferase Translation or Activity in H4-C Neuroglioblastoma Cells. [Related pubchem assays: 1829 (Project Summary), 1814 (Primary HTS)]; type: functional
[27] = Luminescence Cell-Based Dose Response HTS to Identify Activators of Luciferase Translation or Activity in H4 […] Cells. [Related pubchem assays: 1829 (Project Summary), 1814 (Primary HTS)]; type: functional
[28] = Luminescence Cell-Based Dose Confirmation to Identify Activators of 5'UTR Stem-Loop Driven Alpha-Synuclein mRNA Translation in H4 Neuroglioblastoma Cells. [Related pubchem assays: 1829 (Project Summary), 1814 (Primary HTS)]; type: functional
[29] = Luminescence Cell-Based Dose Response to Identify Activators of 5'UTR Stem-Loop Driven Prion Protein mRNA Translation in H4-C Neuroglioblastoma Cells. [Related pubchem assays: 1829 (Project Summary), 1814 (Primary HTS)]; type: functional
[30] = target: Melanin-concentrating hormone receptor 1 (Homo sapiens, UniProt Q99705); test: Fluorescence-based counterscreen for antagonists of the G-protein coupled receptor 7 (GPR7): cell-based high throughput dose response assay to identify antagonists of the melanin-concentrating hormone receptor 1 (MCHR1).; type: functional
Sequence of Melanin-concentrating hormone receptor 1 (Q99705 whole entry): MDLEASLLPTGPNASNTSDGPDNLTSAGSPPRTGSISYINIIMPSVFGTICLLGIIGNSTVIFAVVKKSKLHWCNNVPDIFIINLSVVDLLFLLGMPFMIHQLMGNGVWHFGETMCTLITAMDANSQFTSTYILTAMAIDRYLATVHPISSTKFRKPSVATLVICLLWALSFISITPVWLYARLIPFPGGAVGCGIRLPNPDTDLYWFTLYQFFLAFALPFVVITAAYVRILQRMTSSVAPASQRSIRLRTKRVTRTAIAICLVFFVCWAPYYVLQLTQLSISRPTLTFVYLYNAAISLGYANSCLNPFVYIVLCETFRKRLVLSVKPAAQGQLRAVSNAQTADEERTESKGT

[31] = target: T7, Neuropeptides B/W receptor type 1 (Homo sapiens, UniProt P48145); test: Fluorescence-based dose response cell-based high throughput screening assay to identify antagonists of the G-protein coupled receptor 7 (GPR7). [Related pubchem assays: 1952 (Screening assay (GPR7 antagonists).), 1880 (Summary AID.)]; type: functional
T7 sequence (P48145 whole entry): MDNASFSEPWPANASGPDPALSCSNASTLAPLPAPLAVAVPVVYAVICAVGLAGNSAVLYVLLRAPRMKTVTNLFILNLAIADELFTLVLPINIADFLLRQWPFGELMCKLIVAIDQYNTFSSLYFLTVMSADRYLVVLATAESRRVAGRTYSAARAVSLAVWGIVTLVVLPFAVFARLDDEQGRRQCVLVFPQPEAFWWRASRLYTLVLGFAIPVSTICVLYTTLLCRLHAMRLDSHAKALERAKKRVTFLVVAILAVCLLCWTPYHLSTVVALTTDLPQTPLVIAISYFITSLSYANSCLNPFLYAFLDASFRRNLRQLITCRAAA

[32] = test system: H4; test: Luminescence Cell-Based Dose Response HTS to Identify Activators of 5'UTR Stem-Loop Driven Prion Protein mRNA Translation in H4 Neuroglioblastoma Cells. [Related pubchem assays: 1829 (Project Summary), 1814 (Primary HTS)]; type: functional; conditions: Homo sapiens

Clc1ccc(OCCSc2nnnn2C2CCCCC2)cc1
IC50 [1]: 9.04 µM (active) | IC50 [2]: 14.2 µM (not active)

COc1ccccc1N1CCN(Cc2cc(Br)c(O)c3ncccc23)CC1
EC50 [3]: > 350 µM (not active) | EC50 [4]: 8.13 µM (active) | AC50 [5]: 1.82 µM (active) | EC50 [6]: 6.15 µM (active) | IC50 [7]: 6.32 µM (active) | AC50 [8]: 3.95 µM (active) | IC50 [9]: 15.4 µM (active) | EC50 [10]: 0.482 µM (active) | EC50 [11]: 2.22 µM (active) | EC50 [12]: 19.4 µM (inconclusive) | EC50 [13]: 1.34 µM (active)

Cc1cc(C)c(C(=O)Nc2ccc(Br)c(C(F)(F)F)c2)c(C)c1
EC50 [14]: 2.41 µM (active) | CC50 [15]: 47.4 µM (active) | EC50 [16]: 3.29 µM (active) | EC50 [17]: 3.73 µM (active)

Cc1cc2cc(CNC(=O)C(C)Oc3ccccc3)ccc2n1C (stereo not drawn)
EC50 [18]: > 50 µM (active)

N#Cc1ccc(-c2cccnc2)nc1SCc1ccc(Cl)c(Cl)c1
IC50 [1]: 5.69 µM (active) | IC50 [2]: 5.19 µM (active)

O=C1NC(=O)N(Cc2ccco2)C(=O)/C1=C/c1ccc(-c2cccc([N+](=O)[O-])c2)o1
IC50 [19]: 17.6 µM (not active) | IC50 [20]: 22.4 µM (active) | IC50 [21]: 6.08 µM (active) | IC50 [22]: 9.6 µM (active)

O=C(CNc1cccc2ccccc12)N/N=C/c1ccc(C(=O)O)cc1
IC50 [19]: > 109 µM (not active) | IC50 [22]: 26.6 µM (not active)

CCOC(=O)C1=C(C)NC(=O)NC1c1ccco1 (stereo not drawn)
IC50 [23]: 9.28 µM (active) | IC50 [24]: < 0.023 µM (not active)

COc1cccc(CNC(=O)CCC2CCCN(C/C=C/c3ccccc3OC)C2)c1 (stereo not drawn)
EC50 [6]: > 60 µM (not active) | EC50 [25]: 0.05 µM (active) | EC50 [13]: < 0.1 µM (active)

Cc1ccc(-c2c(C)s/c(=N\C(=O)c3ccco3)n2C)cc1
EC50 [26]: 0.354 µM (active) | EC50 [27]: < 0.1 µM (active) | EC50 [28]: > 12 µM (not active) | EC50 [29]: 0.469 µM (active)

Cc1ccc(NC(Cc2cc(C)no2)c2ccccc2)cc1 (stereo not drawn)
IC50 [30]: 19.8 µM (not active) | IC50 [31]: 9.47 µM (active)

COc1cccc(-c2nc(O)c3c4c(sc3n2)CCCCC4)c1
EC50 [26]: 1.36 µM (active) | EC50 [27]: < 0.1 µM (active) | EC50 [32]: 11.6 µM (active) | EC50 [28]: 0.303 µM (active) | EC50 [29]: 0.37 µM (active)

CCNC(=O)c1ccc(C2SCC(=O)N2CCc2ccccc2)cc1 (stereo not drawn)
EC50 [18]: > 50 µM (active)
